Here are results for 15 compounds from patent publication US20120004235A1, “METHODS TO TREAT CANCER” (Rutgers, The State University of New Jersey, priority 2009, published 2012).

Where two headings read alike, the source gives them in different places. Some results are limits rather than exact numbers.

Data set [1] deals with HCT116 Human Colon Carcinoma. Description: Human tumor cell CFU assay (Test B). The settings on record: colony formation, continuous exposure 7-9 days; for IC50: read-out: IC50 Values (95% Lower and Upper Confidence Intervals); for IC90: read-out: IC90 Values (95% Lower and Upper Confidence Intervals). It is filed as cell-based. The protocol: (§1) For human tumor cell CFU assays, the cell lines which grow as monolayers, MDA-MB-231, HCT116, HT29, NCI-H460, KB3-1 and KBV-1 were grown in RPMI medium (Invitrogen/Gibco, Grand Island, N.Y.) supplemented with 5% fetal bovine serum (Invitrogen/Gibco, Grand Island, NY). The RPMI-8226 cell line grows in suspension.
(§2) For experiments, human tumor cells (1 103) were plated in 6-well plates in medium supplemented with 5% or 10% fetal bovine serum. The compounds were tested in concentrations over the range from 0.01 to 100 nanomolar in half-log intervals covering […] along with untreated control wells. In later experiments some cases the concentration ranges were refined to focus on the region of interest in the response curves. Each compound concentration was tested in duplicate wells. Cultures were exposed to the compounds continuously for 7-9 days at 37° C. in a humidified atmosphere of 5% carbon dioxide balance air. Each experiment was performed three independent times. Colonies were defined as clusters containing 30 or more cells.
(§3) For the monolayer cultures, colonies were visualized by staining with a preformulated crystal violet solution (Fisher Cat #291-472) which contained 0.41% crystal violet, 12% ethanol balance deionized water. To visualize the colonies, the medium was removed by aspiration; the monolayer was rinsed once with phosphate buffered saline which was removed by aspiration. Three drops of crystal violet solution was added to each well and the 6-well plate was rotated so that the crystal violet solution covered the surface area of each well. After 5 minutes exposure time, the wells were rinsed twice with phosphate buffered saline and the colonies were visible.
(§4) The values were expressed as the mean values with lower and upper 95% confidence intervals in nanomolar concentrations.

The test system of data set [2] is HT29 Human Colon Carcinoma. Description: Human tumor cell CFU assay (Test B). It is filed as cell-based. The following applies: colony formation, continuous exposure 7-9 days; for IC50: read-out: IC50 Values (95% Lower and Upper Confidence Intervals); for IC90: read-out: IC90 Values (95% Lower and Upper Confidence Intervals). The protocol:
as §1, §2, §3, §4

The test system of data set [3] is KB-V1 MDR1+ KB3-1 Subline. Description: Human tumor cell CFU assay (Test B). The format is cell-based. The settings on record: colony formation, continuous exposure 7-9 days. The procedure:
as §1, §2, §3, §4

Data set [4] deals with KB3-1 HeLa Human Cervical Carcinoma. Description: Human tumor cell CFU assay (Test B). It is filed as cell-based. The following applies: colony formation, continuous exposure 7-9 days; for IC90: read-out: IC90 Values (95% Lower and Upper Confidence Intervals). The protocol: as §1, §2, §3, §4
Data set [5] relates to KBH5.0 BCRP+ KB3-1 Subline. Description: Human tumor cell CFU assay (Test B). The format is cell-based. The following applies: colony formation, continuous exposure 7-9 days; for IC50: read-out: IC50 Values (95% Lower and Upper Confidence Intervals). The procedure: as §1, §2, §3, §4
The subject of data set [6] is MDA-MB-231 Human Breast Carcinoma. Description: Human tumor cell CFU assay (Test B). It is filed as cell-based. The settings on record: colony formation, continuous exposure 7-9 days; for IC50: read-out: IC50 Values (95% Lower and Upper Confidence Intervals); for IC90: read-out: IC90 Values (95% Lower and Upper Confidence Intervals). The protocol: as §1, §2, §3, §4

For data set [7], the system named is NCI-H460 Human Non-small Cell Lung Carcinoma. Description: Human tumor cell CFU assay (Test B). It is filed as cell-based. The settings on record: colony formation, continuous exposure 7-9 days; for IC50: read-out: IC50 Values (95% Lower and Upper Confidence Intervals); for IC90: read-out: IC90 Values (95% Lower and Upper Confidence Intervals). The procedure: as §1, §2, §3, §4

For data set [8], the system named is RPMI-8226 Human Multiple Myeloma. Description: Human tumor cell CFU assay (Test B). The following applies: colony formation in agar, continuous exposure 7-9 days. The format is cell-based. The protocol:
as §1
For human tumor cell CFU assays, RPMI-8226 cells were grown in 0.35% agar in DMEM-F12 medium supplemented with 10% fetal bovine serum over a base layer of 0.5% agar in DMEM-F12 medium supplemented with 10% fetal bovine serum
as §2, §4

Data set [9] concerns NCI-H460 human non-small cell lung carcinoma xenograft. Description: Compound 2 citrate salt vs. NCI-H460 xenograft model (pemetrexed, topotecan, cisplatin controls). The settings on record: qd×5.
Data set [10] relates to MDA-MB-231 human breast tumor xenograft. The following applies: qd×5.

Regarding `COc1cc2c(=O)n(CCN(C)C)c3c4cc5c(cc4ncc3c2cc1OC)OCO5` [Compound 1], the IC50 (usually the midpoint of a concentration-inhibition curve) in data set [1] (Homo sapiens, HCT-116) was 1.7 nM; in data set [2] (Homo sapiens, HT-29) it was 1.3 nM; in data set [3] (Homo sapiens) it was 1.8 nM; in [4] (Homo sapiens) it was 1.5 nM; in [5] (Homo sapiens, KB 3-1), 1.8 nM; in data set [6] (Homo sapiens, MDA-MB-231), 0.3 nM. Further, the IC50 amounted to 2.3 nM in [7] (Homo sapiens, NCI-H460) and 1.8 nM in [8] (Homo sapiens, RPMI-8226). The IC90 (as a rule, the concentration at which the effect reaches the 90% level) in data set [1] (Homo sapiens, HCT-116) came out at 5.6 nM; in [2] (Homo sapiens, HT-29), 4.3 nM; in data set [3] (Homo sapiens), 5.7 nM; in [4] (Homo sapiens), 5.2 nM; in data set [5] (Homo sapiens, KB 3-1), 5.8 nM; in data set [6] (Homo sapiens, MDA-MB-231), 1.2 nM. Besides, the IC90 in data set [7] (Homo sapiens, NCI-H460) was 6.2 nM; in data set [8] (Homo sapiens, RPMI-8226), 5.8 nM.

Consider `CCc1c2c(nc3ccc(O)cc13)-c1cc3c(c(=O)n1C2)COC(=O)[C@]3(O)CC` [SN-38, 7-ethyl-10-hydroxyl-camptothecin, reference compound], for which the concentration for half-maximal inhibition (IC50) in [1] stood at 2.7 nM; in [2] it was 0.5 nM; in data set [3] it was 15 nM; in data set [4] it was 5.3 nM; in [5] it was 6.1 nM; in data set [6], 0.7 nM. Moreover, the half-maximal inhibitory concentration (IC50) was 4.7 nM in data set [7] and 0.9 nM in [8]. Besides, the concentration for an effect of 90% (IC90) in data set [1] came to 8.4 nM; in [2] it was 1.8 nM; in data set [3], 55 nM; in data set [4], 19.1 nM; in [5] it was 18.8 nM; in data set [6] it was 2 nM. Also, the IC90 turned out to be 13.3 nM in data set [7] and 3 nM in [8].

In the case of `COc1cc2c(cc1OC)-c1cnc3cc4c(cc3c1N(CCN(C)C)C2)OCO4` [Example 17, 8,9-Dimethoxy-2,3-methylenedioxy-5-[2-(N,N-dimethylamino)ethyl]-5,6-dihydro-dibenzo[c,h]1,6-naphthyridine], the melting point (in general, the temperature of the solid-liquid transition) is 271 to 273 °C (dec.).

With `CCN(CC)CCn1c(=O)c2cc(OC)c(OC)cc2c2cnc3cc4c(cc3c21)OCO4` [Example 19, 8,9-Dimethoxy-2,3-methylenedioxy-5-[2-(N,N-diethylamino)ethyl]-5H-dibenzo[c,h]1,6-naphthyridin-6-one], the melting point is 221 to 223 °C (dec.).

Compound `COc1cc2c(=O)n(C(C)CN(C)C)c3c4cc5c(cc4ncc3c2cc1OC)OCO5` (stereo not shown) [Example 8, 8,9-Dimethoxy-2,3-methylenedioxy-5-[2-(N,N-dimethylamino)-1-methylethyl]-5H-dibenzo[c,h]1,6-naphthyridin-6-one] showed a melting point of 186 to 187 °C.

As to `COc1cc2c(=O)n(CCCN(C)C)c3c4cc5c(cc4ncc3c2cc1OC)OCO5` [Example 11, 8,9-Dimethoxy-2,3-methylenedioxy-5-[3-(N,N-dimethylamino)propyl]-5H-dibenzo[c,h]1,6-naphthyridin-6-one], the melting point was 262 to 264 °C (dec.).

In the case of `COc1cc2c(=O)n(CCO)c3c4cc5c(cc4ncc3c2cc1OC)OCO5` [Example 13, 8,9-Dimethoxy-2,3-methylenedioxy-5-[2-(hydroxy)ethyl]-5H-dibenzo[c,h]1,6-naphthyridin-6-one], the melting point fell in the range of 285 to 286 °C.

`COc1cc2c(=O)n(CCOCCO)c3c4cc5c(cc4ncc3c2cc1OC)OCO5` [Example 14, 8,9-Dimethoxy-2,3-methylenedioxy-5-[2-(2-hydroxyethoxy)ethyl]-5H-dibenzo[c,h]1,6-naphthyridin-6-one] yielded a melting point of 235 °C.

For `Nc1nc2[nH]cc(CCc3ccc(C(=O)N[C@@H](CCC(=O)O)C(=O)O)cc3)c2c(=O)[nH]1` [Pemetrexed, reference compound], in data set [9] (100 and 150 mg/kg/day IP), the antitumor activity entry is listed as “not considered active” and the body weight loss is at most 20%.

For `COc1cc2c(=O)n(CCN3CCCC3)c3c4cc5c(cc4nnc3c2cc1OC)OCO5` [Example 5, 2,3-Dimethoxy-8,9-methylenedioxy-11-[2-(pyrrolidin-1-yl)ethyl]-11H-5,6,11-triaza-chrysen-12-one], the melting point was determined as 229 °C.

For the compound `COc1cc2c(=O)n(CCN(C)C(C)C)c3c4cc5c(cc4ncc3c2cc1OC)OCO5` [Compound 4], the concentration for half-maximal inhibition (IC50) is 1.2 nM in data set [1] (Homo sapiens, HCT-116); 0.5 nM in data set [2] (Homo sapiens, HT-29); 1.4 nM in data set [3] (Homo sapiens); 1 nM in data set [4] (Homo sapiens); 1.3 nM in data set [5] (Homo sapiens, KB 3-1); 0.3 nM in [6] (Homo sapiens, MDA-MB-231). In addition, the IC50 is 3.4 nM in data set [7] (Homo sapiens, NCI-H460) and 0.4 nM in data set [8] (Homo sapiens, RPMI-8226). In addition, the IC90 in data set [1] (Homo sapiens, HCT-116) worked out at 4.4 nM; in [2] (Homo sapiens, HT-29) it was 1.9 nM; in data set [3] (Homo sapiens) it was 6.9 nM; in data set [4] (Homo sapiens), 4 nM; in data set [5] (Homo sapiens, KB 3-1), 6 nM; in data set [6] (Homo sapiens, MDA-MB-231) it was 1 nM. The IC90 in [7] (Homo sapiens, NCI-H460) worked out at 11 nM; in data set [8] (Homo sapiens, RPMI-8226), 1.5 nM.

Consider `COc1cc2c(C(=O)NCC(C)(C)N(C)C)cc3c4cc5c(cc4ncc3c2cc1OC)OCO5` [Compound 3], for which the half-maximal inhibitory concentration (IC50) came out at 0.4 nM in data set [1] (Homo sapiens, HCT-116); 0.5 nM in data set [2] (Homo sapiens, HT-29); 0.6 nM in [3] (Homo sapiens); 0.8 nM in [4] (Homo sapiens); 0.6 nM in data set [5] (Homo sapiens, KB 3-1); 0.5 nM in [6] (Homo sapiens, MDA-MB-231). The IC50 in data set [7] (Homo sapiens, NCI-H460) is 0.9 nM; in data set [8] (Homo sapiens, RPMI-8226) it was 0.7 nM. Further, the IC90 came out at 1.7 nM in data set [1] (Homo sapiens, HCT-116); 1.5 nM in [2] (Homo sapiens, HT-29); 2.8 nM in data set [3] (Homo sapiens); 2.8 nM in data set [4] (Homo sapiens); 2.3 nM in data set [5] (Homo sapiens, KB 3-1); 0.9 nM in data set [6] (Homo sapiens, MDA-MB-231). The IC90 in [7] (Homo sapiens, NCI-H460) amounted to 3 nM; in data set [8] (Homo sapiens, RPMI-8226) it was 2.5 nM.

For the compound `COc1cccc2c1C(=O)c1c(O)c3c(c(O)c1C2=O)C[C@@](O)(C(=O)CO)C[C@@H]3O[C@H]1C[C@H](N)[C@H](O)[C@H](C)O1` [Doxorubicin, reference compound], the toxic deaths entry in [10] (both dosages, 2.5 and 3 mg/kg/day IP) is “there were toxic deaths”.

Consider `CC[C@@]1(O)C(=O)OCc2c1cc1n(c2=O)Cc2cc3c(CN(C)C)c(O)ccc3nc2-1` [Topotecan, reference compound], for which the IC50 turned out to be 8.5 nM in data set [1] (Homo sapiens, HCT-116); 2.9 nM in data set [2] (Homo sapiens, HT-29); 75 nM in data set [3] (Homo sapiens); 32.7 nM in [4] (Homo sapiens); 32 nM in data set [5] (Homo sapiens, KB 3-1); 5.6 nM in [6] (Homo sapiens, MDA-MB-231). For the same compound, the half-inhibitory concentration (IC50) in [7] (Homo sapiens, NCI-H460) came out at 18.2 nM; in data set [8] (Homo sapiens, RPMI-8226) it was 12.7 nM. The 90% effect concentration (IC90) in data set [1] (Homo sapiens, HCT-116) stood at 26.3 nM; in [2] (Homo sapiens, HT-29), 11.2 nM; in data set [3] (Homo sapiens), 257 nM; in [4] (Homo sapiens), 107 nM; in [5] (Homo sapiens, KB 3-1), 115 nM; in data set [6] (Homo sapiens, MDA-MB-231), 19.5 nM. Moreover, the IC90 in [7] (Homo sapiens, NCI-H460) was 52.5 nM; in data set [8] (Homo sapiens, RPMI-8226), 43.2 nM. Further, in data set [9] (2 and 2.5 mg/kg/day IP), the body weight loss was over 30%.

`O=C(O)C(=O)O.[NH-][C@@H]1CCCC[C@H]1[NH-].[Pt+2]` [Oxaliplatin, reference compound]: in data set [10] (5 and 6.5 mg/kg/day IP), the “delay in tumor growth” value is on record as 13 days and the tolerability result is “well tolerated”. For the same compound, the “TGI (T/C)” value in data set [10] (both dosages, 5 and 6.5 mg/kg/day IP) is 45.1-47.6%.
